# Source: ChEMBL document CHEMBL3991601, “The target landscape of clinical kinase drugs” (Science, 2017)
# The source made the active and inactive calls. Rule as the data show it, for most assays here: actives have a measured Kd and inactives only a lower limit.
# How the values were obtained:
# [1] = target: T1, Acyl-CoA dehydrogenase family member 11 (Homo sapiens, UniProt Q709F0)
# T1 sequence (Q709F0 whole entry): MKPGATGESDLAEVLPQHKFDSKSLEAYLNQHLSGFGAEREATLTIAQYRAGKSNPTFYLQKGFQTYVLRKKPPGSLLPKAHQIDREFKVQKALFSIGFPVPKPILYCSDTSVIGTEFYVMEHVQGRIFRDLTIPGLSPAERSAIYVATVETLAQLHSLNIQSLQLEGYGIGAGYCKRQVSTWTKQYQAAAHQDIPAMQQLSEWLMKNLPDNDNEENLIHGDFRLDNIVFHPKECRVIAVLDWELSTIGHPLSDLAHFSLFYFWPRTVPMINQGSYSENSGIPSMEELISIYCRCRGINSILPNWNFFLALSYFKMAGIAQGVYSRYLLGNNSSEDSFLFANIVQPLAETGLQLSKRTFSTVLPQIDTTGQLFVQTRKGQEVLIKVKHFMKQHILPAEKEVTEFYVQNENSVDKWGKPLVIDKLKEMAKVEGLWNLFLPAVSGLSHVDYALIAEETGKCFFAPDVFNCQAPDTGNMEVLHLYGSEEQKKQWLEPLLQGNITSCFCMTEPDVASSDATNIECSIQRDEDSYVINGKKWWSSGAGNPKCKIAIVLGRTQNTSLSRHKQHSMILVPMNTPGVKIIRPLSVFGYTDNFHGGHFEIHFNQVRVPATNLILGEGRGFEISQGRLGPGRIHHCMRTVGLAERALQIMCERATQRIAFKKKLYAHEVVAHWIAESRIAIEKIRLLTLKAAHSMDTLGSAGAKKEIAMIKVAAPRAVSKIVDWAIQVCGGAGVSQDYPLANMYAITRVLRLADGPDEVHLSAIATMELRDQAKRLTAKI
# [2] = target: Atypical kinase COQ8A, mitochondrial (Homo sapiens, UniProt Q8NI60)
# Sequence of Atypical kinase COQ8A, mitochondrial (Q8NI60 whole entry): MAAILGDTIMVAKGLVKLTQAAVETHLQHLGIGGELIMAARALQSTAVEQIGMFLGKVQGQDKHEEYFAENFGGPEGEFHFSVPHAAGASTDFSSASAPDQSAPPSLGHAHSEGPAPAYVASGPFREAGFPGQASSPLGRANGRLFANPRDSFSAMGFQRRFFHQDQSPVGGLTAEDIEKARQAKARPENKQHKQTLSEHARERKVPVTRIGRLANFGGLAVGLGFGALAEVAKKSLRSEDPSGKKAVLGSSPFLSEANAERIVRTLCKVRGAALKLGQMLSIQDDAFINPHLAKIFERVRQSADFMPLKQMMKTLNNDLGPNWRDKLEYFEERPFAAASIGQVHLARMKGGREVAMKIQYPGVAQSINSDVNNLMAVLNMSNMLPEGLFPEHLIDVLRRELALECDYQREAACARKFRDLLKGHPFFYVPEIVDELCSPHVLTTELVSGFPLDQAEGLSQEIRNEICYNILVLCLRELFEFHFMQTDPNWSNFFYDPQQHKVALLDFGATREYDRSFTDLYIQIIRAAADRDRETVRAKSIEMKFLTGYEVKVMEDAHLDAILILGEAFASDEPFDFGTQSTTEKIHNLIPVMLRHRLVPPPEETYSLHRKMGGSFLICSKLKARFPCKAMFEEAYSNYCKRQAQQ
# [3] = target: Cyclin-dependent kinase 2 (Homo sapiens, UniProt P24941)
# [4] = target: Cyclin-dependent kinase 3 (Homo sapiens, UniProt Q00526)
# Sequence of Cyclin-dependent kinase 3 (Q00526 whole entry): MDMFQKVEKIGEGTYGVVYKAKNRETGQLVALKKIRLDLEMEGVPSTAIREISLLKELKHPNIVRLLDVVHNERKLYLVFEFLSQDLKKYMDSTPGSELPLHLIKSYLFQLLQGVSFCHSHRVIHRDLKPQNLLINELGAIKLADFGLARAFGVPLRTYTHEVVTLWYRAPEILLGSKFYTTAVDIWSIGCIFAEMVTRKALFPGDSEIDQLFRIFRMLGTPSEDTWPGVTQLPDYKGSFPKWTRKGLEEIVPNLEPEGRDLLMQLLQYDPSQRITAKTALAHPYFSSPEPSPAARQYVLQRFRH
# [5] = target: T2, Serine/threonine-protein kinase Chk1 (Homo sapiens, UniProt O14757)
# T2 sequence (O14757 whole entry): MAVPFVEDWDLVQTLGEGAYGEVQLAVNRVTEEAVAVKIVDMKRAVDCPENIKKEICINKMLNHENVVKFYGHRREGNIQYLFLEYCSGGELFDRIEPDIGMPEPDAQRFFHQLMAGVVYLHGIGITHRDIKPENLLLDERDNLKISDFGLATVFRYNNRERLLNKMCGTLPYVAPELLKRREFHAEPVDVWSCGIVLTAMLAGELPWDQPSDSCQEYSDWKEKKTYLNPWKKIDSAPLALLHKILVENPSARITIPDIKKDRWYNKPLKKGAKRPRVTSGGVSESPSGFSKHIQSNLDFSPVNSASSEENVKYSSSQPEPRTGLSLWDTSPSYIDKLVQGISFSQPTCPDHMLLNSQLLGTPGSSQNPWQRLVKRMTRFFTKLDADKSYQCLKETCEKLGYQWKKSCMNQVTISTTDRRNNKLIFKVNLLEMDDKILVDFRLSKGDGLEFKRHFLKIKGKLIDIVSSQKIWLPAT
# [6] = target: Casein kinase I isoform alpha (Homo sapiens, UniProt P48729)
# [7] = target: Serine/threonine-protein kinase PAK 4 (Homo sapiens, UniProt O96013)
# Sequence of Serine/threonine-protein kinase PAK 4 (O96013 whole entry): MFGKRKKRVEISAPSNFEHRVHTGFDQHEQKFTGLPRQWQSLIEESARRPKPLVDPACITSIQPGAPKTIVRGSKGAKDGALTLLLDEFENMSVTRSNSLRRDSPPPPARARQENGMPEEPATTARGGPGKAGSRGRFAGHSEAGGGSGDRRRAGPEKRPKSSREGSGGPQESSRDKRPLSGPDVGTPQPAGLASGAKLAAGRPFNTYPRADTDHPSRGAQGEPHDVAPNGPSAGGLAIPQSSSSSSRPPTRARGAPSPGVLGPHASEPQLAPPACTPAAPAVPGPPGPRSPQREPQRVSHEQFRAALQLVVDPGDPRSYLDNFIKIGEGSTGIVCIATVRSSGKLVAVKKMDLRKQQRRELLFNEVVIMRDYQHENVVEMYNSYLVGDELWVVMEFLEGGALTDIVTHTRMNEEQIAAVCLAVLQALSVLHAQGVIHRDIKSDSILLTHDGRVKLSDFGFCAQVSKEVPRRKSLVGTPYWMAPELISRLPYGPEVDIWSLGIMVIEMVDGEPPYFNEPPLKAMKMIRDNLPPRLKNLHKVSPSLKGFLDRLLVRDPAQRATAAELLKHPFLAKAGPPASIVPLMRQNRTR
# [8] = target: Serine/threonine-protein kinase N1 (Homo sapiens, UniProt Q16512)
# Sequence of Serine/threonine-protein kinase N1 (Q16512 whole entry): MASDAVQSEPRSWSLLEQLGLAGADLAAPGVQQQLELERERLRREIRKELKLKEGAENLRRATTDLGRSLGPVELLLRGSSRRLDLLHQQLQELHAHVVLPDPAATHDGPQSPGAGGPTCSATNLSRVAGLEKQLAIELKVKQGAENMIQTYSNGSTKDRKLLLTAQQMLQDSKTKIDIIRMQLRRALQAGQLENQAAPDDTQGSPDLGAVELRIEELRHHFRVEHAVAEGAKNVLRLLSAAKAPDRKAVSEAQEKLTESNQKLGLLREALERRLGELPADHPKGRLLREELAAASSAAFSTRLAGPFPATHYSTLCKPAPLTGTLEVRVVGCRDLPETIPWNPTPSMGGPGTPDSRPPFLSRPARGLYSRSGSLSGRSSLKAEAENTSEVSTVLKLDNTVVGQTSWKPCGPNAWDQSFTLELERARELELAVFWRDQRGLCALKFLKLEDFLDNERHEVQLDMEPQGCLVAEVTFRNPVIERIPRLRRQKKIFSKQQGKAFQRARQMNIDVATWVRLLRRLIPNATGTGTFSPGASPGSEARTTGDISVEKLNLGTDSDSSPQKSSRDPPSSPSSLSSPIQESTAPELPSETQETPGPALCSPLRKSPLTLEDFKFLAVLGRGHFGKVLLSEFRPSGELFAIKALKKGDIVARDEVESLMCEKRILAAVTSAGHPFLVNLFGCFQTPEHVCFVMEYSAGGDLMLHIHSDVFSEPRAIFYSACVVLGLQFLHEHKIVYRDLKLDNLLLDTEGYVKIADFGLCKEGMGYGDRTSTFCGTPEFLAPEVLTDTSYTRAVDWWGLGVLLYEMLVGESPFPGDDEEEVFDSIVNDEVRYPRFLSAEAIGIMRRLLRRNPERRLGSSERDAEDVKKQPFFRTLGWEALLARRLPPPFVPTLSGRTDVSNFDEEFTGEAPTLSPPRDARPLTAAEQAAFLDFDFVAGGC
# [9] = target: Serine/threonine-protein kinase N2 (Homo sapiens, UniProt Q16513)
# Sequence of Serine/threonine-protein kinase N2 (Q16513 whole entry): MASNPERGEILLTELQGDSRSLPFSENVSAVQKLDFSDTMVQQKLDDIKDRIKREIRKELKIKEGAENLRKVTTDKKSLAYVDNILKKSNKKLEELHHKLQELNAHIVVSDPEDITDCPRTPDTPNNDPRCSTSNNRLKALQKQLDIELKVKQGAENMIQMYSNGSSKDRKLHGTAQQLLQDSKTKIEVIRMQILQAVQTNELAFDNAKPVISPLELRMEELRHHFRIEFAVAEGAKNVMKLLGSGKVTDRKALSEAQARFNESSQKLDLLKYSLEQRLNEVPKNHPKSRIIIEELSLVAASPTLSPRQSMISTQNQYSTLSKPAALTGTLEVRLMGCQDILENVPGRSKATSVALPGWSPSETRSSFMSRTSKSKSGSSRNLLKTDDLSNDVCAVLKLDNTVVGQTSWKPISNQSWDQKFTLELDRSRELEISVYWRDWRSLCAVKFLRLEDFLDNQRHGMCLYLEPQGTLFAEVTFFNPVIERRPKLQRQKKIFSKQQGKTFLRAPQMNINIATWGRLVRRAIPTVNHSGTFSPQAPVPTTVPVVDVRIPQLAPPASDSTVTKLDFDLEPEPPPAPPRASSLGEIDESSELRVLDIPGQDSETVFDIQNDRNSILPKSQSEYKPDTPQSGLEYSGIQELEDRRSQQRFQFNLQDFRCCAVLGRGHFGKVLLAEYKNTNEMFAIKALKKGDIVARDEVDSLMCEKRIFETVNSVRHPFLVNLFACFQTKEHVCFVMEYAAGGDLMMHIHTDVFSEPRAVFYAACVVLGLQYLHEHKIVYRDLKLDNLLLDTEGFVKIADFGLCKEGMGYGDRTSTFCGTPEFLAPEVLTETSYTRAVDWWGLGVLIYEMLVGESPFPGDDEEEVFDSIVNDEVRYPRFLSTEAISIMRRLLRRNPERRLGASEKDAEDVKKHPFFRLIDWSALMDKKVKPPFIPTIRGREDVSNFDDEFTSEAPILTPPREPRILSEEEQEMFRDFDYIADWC
# [10] = target: Ras-related protein Rab-6A (Homo sapiens, UniProt P20340)
# Sequence of Ras-related protein Rab-6A (P20340 whole entry): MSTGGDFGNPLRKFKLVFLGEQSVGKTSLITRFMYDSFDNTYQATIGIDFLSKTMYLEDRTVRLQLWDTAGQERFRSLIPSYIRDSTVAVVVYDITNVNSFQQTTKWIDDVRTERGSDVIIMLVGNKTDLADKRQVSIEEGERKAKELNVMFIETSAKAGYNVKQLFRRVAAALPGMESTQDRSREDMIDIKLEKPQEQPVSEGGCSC
# [11] = target: Ribosomal protein S6 kinase alpha-3 (Homo sapiens, UniProt P51812)
# Sequence of Ribosomal protein S6 kinase alpha-3 (P51812 whole entry): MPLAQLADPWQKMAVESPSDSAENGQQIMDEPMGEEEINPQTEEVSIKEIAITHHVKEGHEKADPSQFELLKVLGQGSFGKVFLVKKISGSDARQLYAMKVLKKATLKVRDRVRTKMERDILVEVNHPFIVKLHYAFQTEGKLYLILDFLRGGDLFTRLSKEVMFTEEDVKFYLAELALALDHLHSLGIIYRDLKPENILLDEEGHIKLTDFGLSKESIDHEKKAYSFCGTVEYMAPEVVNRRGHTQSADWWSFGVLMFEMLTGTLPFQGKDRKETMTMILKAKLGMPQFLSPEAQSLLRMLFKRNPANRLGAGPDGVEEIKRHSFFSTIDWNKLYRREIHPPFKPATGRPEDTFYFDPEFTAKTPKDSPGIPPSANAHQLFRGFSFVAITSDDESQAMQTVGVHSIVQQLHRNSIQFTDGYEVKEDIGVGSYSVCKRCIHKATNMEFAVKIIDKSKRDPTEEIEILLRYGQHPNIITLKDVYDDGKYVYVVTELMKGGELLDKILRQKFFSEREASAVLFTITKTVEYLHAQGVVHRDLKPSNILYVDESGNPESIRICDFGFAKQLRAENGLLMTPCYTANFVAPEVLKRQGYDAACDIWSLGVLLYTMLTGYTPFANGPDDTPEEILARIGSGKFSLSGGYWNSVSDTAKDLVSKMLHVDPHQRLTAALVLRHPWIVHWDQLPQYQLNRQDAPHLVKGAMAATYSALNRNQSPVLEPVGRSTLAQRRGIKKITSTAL
# [12] = target: U5 small nuclear ribonucleoprotein 200 kDa helicase (Homo sapiens, UniProt O75643)
# [13] = target: T3, Serine/threonine-protein kinase STK11 (Homo sapiens, UniProt Q15831)
# T3 sequence (Q15831 whole entry): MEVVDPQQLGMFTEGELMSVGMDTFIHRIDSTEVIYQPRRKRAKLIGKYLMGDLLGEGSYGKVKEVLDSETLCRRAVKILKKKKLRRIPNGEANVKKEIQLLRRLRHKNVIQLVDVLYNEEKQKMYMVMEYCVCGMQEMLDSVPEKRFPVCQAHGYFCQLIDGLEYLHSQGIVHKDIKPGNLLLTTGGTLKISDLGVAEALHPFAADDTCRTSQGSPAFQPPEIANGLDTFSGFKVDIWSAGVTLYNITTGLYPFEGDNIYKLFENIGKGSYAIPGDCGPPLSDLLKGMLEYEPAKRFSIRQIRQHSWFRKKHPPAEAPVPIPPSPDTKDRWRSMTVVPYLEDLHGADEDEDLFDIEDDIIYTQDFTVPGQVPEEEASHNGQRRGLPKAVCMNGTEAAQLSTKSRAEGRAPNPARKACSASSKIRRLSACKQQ
# [14] = target: TGF-beta receptor type-2 (Homo sapiens, UniProt P37173)
# Sequence of TGF-beta receptor type-2 (P37173 whole entry): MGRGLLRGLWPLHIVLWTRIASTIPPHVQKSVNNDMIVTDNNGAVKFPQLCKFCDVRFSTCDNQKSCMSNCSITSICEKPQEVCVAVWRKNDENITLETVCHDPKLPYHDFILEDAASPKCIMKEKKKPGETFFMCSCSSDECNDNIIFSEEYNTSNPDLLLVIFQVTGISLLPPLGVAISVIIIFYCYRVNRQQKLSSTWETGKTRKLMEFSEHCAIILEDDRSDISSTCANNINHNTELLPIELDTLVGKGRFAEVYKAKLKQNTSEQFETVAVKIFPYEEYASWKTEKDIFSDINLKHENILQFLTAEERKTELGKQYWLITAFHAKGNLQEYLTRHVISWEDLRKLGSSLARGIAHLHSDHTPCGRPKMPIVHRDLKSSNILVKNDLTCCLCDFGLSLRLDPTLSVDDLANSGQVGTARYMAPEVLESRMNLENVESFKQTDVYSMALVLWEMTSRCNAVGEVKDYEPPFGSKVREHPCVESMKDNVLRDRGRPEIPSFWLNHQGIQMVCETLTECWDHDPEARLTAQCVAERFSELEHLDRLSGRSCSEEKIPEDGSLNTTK
# Also: in the data inactive means no Kd found up to 30 µM.
SMILES,Kd [1],Kd [2],Kd [3],Kd [4],Kd [5],Kd [6],Kd [7],Kd [8],Kd [9],Kd [10],Kd [11],Kd [12],Kd [13],Kd [14]
COCCN1CCN(Cc2ccc(-c3n[nH]c4c3C(=O)c3c(NC(=O)NN5CCOCC5)cccc3-4)cc2)CC1 [RGB-286638],> 30 µM (inactive),> 30 µM (inactive),0.072 µM (active),> 30 µM (inactive),> 30 µM (inactive),8.07 µM (active),> 30 µM (inactive),> 30 µM (inactive),> 30 µM (inactive),> 30 µM (inactive),> 30 µM (inactive),> 30 µM (inactive),> 30 µM (inactive),0.08 µM (active)
CNC(=O)c1ccc(Nc2ncc(C(F)(F)F)c(NCc3nccnc3N(C)S(C)(=O)=O)n2)cc1 [DEFACTINIB],> 30 µM (inactive),> 30 µM (inactive),1.66 µM,> 30 µM (inactive),> 30 µM (inactive),> 30 µM (inactive),22 µM (active),> 30 µM (inactive),> 30 µM (inactive),> 30 µM (inactive),> 30 µM (inactive),> 30 µM (inactive),> 30 µM (inactive),> 30 µM (inactive)
C=CC(=O)Nc1cccc(Nc2nc(Nc3ccc(N4CCN(C(C)=O)CC4)cc3OC)ncc2C(F)(F)F)c1 [ROCILETINIB],> 30 µM (inactive),> 30 µM (inactive),> 30 µM (inactive),> 30 µM (inactive),> 30 µM (inactive),> 30 µM (inactive),> 30 µM (inactive),> 30 µM (inactive),> 30 µM (inactive),> 30 µM (inactive),> 30 µM (inactive),> 30 µM (inactive),> 30 µM (inactive),> 30 µM (inactive)
Cc1ccc(C(=O)Nc2ccc(Oc3cc4cnn(C)c4cc3-c3cn[nH]c3)c(F)c2)c(=O)n1-c1ccc(F)cc1 [MERESTINIB],> 30 µM (inactive),> 30 µM (inactive),> 30 µM (inactive),> 30 µM (inactive),> 30 µM (inactive),> 30 µM (inactive),> 30 µM (inactive),> 30 µM (inactive),> 30 µM (inactive),> 30 µM (inactive),> 30 µM (inactive),> 30 µM (inactive),> 30 µM (inactive),> 30 µM (inactive)
CCOc1ccn(-c2ccc(F)cc2)c(=O)c1C(=O)Nc1ccc(Oc2ccnc(N)c2Cl)c(F)c1 [BMS-777607],> 30 µM (inactive),> 30 µM (inactive),> 30 µM (inactive),> 30 µM (inactive),> 30 µM (inactive),> 30 µM (inactive),> 30 µM (inactive),> 30 µM (inactive),> 30 µM (inactive),> 30 µM (inactive),> 30 µM (inactive),> 30 µM (inactive),> 30 µM (inactive),> 30 µM (inactive)
Cc1c(Cn2c(C)nc3c(C(=O)O)cc(N4CCOCC4)cc32)cccc1C(F)(F)F [GSK-2636771],> 30 µM (inactive),> 30 µM (inactive),> 30 µM (inactive),> 30 µM (inactive),> 30 µM (inactive),> 30 µM (inactive),> 30 µM (inactive),> 30 µM (inactive),> 30 µM (inactive),> 30 µM (inactive),> 30 µM (inactive),> 30 µM (inactive),> 30 µM (inactive),> 30 µM (inactive)
NC(=O)c1ccc(N(C(N)=O)c2c(F)cccc2F)nc1-c1ccc(F)cc1F [VX-702],> 30 µM (inactive),> 30 µM (inactive),> 30 µM (inactive),> 30 µM (inactive),> 30 µM (inactive),> 30 µM (inactive),> 30 µM (inactive),> 30 µM (inactive),> 30 µM (inactive),> 30 µM (inactive),> 30 µM (inactive),> 30 µM (inactive),> 30 µM (inactive),> 30 µM (inactive)
COc1cc2ncnc(Nc3ccc(F)c(Cl)c3)c2cc1NC(=O)/C=C/CN1CCCCC1 [DACOMITINIB ANHYDROUS],> 30 µM (inactive),> 30 µM (inactive),> 30 µM (inactive),> 30 µM (inactive),> 30 µM (inactive),> 30 µM (inactive),> 30 µM (inactive),> 30 µM (inactive),> 30 µM (inactive),> 30 µM (inactive),> 30 µM (inactive),> 30 µM (inactive),> 30 µM (inactive),> 30 µM (inactive)
COc1cc(F)c(F)c(Nc2ccc(I)cc2F)c1NS(=O)(=O)C1(C[C@H](O)CO)CC1 [REFAMETINIB],> 30 µM (inactive),> 30 µM (inactive),> 30 µM (inactive),> 30 µM (inactive),0.439 µM (active),> 30 µM (inactive),> 30 µM (inactive),> 30 µM (inactive),> 30 µM (inactive),> 30 µM (inactive),> 30 µM (inactive),> 30 µM (inactive),> 30 µM (inactive),> 30 µM (inactive)
O[C@H]1CC[C@H](Nc2ncc3nc(Nc4c(F)cc(F)cc4F)n([C@H]4CCOC4)c3n2)CC1 [TANZISERTIB],> 30 µM (inactive),> 30 µM (inactive),> 30 µM (inactive),> 30 µM (inactive),> 30 µM (inactive),> 30 µM (inactive),> 30 µM (inactive),> 30 µM (inactive),> 30 µM (inactive),> 30 µM (inactive),> 30 µM (inactive),> 30 µM (inactive),> 30 µM (inactive),> 30 µM (inactive)
CCc1nc(C(N)=O)c(Nc2ccc(N3CCC(N4CCN(C)CC4)CC3)c(OC)c2)nc1NC1CCOCC1 [GILTERITINIB],> 30 µM (inactive),> 30 µM (inactive),> 30 µM (inactive),> 30 µM (inactive),> 30 µM (inactive),> 30 µM (inactive),> 30 µM (inactive),> 30 µM (inactive),> 30 µM (inactive),> 30 µM (inactive),2.66 µM (active),1.38 µM (active),> 30 µM (inactive),> 30 µM (inactive)
C#Cc1cccc(Nc2ncnc3cc4c(cc23)OCCOCCOCCO4)c1 [ICOTINIB],> 30 µM (inactive),> 30 µM (inactive),> 30 µM (inactive),> 30 µM (inactive),> 30 µM (inactive),> 30 µM (inactive),> 30 µM (inactive),> 30 µM (inactive),> 30 µM (inactive),> 30 µM (inactive),> 30 µM (inactive),> 30 µM (inactive),> 30 µM (inactive),> 30 µM (inactive)
